Data taken from PMC5618792, “Dynamic multicolor protein labeling in living cells” (Chemical Science, 2017).

Legend:
FAST [1] = target: T1, FAST (Halorhodospira halophila, UniProt P16113, C69G/D97P/F96I/M100R/Q99S/T101G/T95M/Y94W/Y98T); assay: Spectroscopic properties of FAST:fluorogen complexes in PBS pH 7.4 (absorption, emission, quantum yield); assay type: physicochemical; conditions: for Brightness = ε × φ / ε, molar absorption coefficient at λ abs / φ, fluorescence quantum yield / λ abs, wavelength of maximal absorption / λ em, wavelength of maximal emission / F bound/F unbound, fluorescence activation upon FAST binding / Δλ abs = λ abs,bound – λ abs,unbound, absorption red-shift upon FAST binding: PBS pH 7.4
T1 construct: His-tag; made in house; host or cells: Rosetta(DE3)pLysS E. coli
T1 sequence (P16113 whole entry C69G/Y94W/T95M/F96I/D97P/Y98T/Q99S/M100R/T101G): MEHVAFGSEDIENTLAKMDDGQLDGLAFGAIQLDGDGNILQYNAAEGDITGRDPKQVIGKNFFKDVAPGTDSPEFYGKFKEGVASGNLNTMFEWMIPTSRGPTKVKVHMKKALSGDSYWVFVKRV
Description: (§1) The UV/Vis absorption spectra were recorded with 1 cm × 1 cm quartz cuvettes (Hellma) on a diode array UV/Vis spectrophotometer (Evolution array, Thermo Scientific). The corrected fluorescence spectra upon one-photon excitation were recorded with a Photon Technology International QuantaMaster QM-1 spectrofluorimeter (PTI, Monmouth Junction, NJ) equipped with a Peltier cell holder (TLC50, Quantum Northwest, Shoreline, WA). The overall emission quantum yields after one-photon excitation φ were determined as previously described.[14]

[2] = Physico-chemical properties of free fluorogens in aqueous solutions; assay type: physicochemical; conditions: free fluorogen; for pKa: aqueous solution, read-out: pKA, acidity constant
Description: as §1, with “pH measurements were performed on a standard pH meter PHM210 Radiometer Analytical (calibrated with aqueous buffers at pH 4 and 7 or 10) with a Crison 5208 Electrode (Barcelona, Spain). The UV/Vis” for “The UV/Vis”
HBR-3,5DOM in aqueous solutions. Abbreviations are as follows : pKA, acidity constant ;
λabs,neutral, wavelength of maximal absorption of the protonated state; λabs,anionic, wavelength of
maximal absorption of the anionic state.
Fluorogen pKA λabs,neutral (nm) λabs,anionic (nm)

FAST [3] = target: T1, FAST; assay: Affinity constants by spectrofluorometric titration of FAST with fluorogen; assay type: binding
Description: as §1

HeLa cells = assay: LIVE/DEAD viability/cytotoxicity assay; assay type: cell-based; conditions: 5 µM, 24 h, calceinAM and EthD1
Description: The HeLa cells were treated with DMEM media containing the fluorogens at the indicated concentrations for the indicated times. The cell viability was evaluated by fluorescence microscopy using the LIVE/DEAD® viability/cytotoxicity assay kit (Molecular Probes, Life Technologies) following the manufacturer’s protocol.
Figure S2. Viability assay of HeLa cells incubated for 24 h with solutions of HBR-3,5DM, HBR-3OM and HBR-3,5DOM at 5 µM. Cell viability was tested by using calceinAM and EthD1 (LIVE/DEAD® viability/cytotoxicity assay kit). CalceinAM is a cell-permeant profluorophore cleaved by intracellular esterases releasing the green fluorescent polyanionic calcein in live cells. EthD1 (Ethidium homodimer 1) is a non cell-permeant nucleic acid red fluorescent stain that enters only cells with damaged membranes and undergoes a fluorescence enhancement upon binding to nucleic acids, thereby producing a bright red fluorescence in dead cells. Control experiments with HeLa cells non-incubated with dye (A) or incubated for 30 min with 1% hydrogen peroxyde (B) are shown. Cell fluorescence was evaluated by confocal microscopy.
3OM and HBR-3,5DOM are non-toxic for HeLa cells at the concentrations used for imaging.
(1 picture or pasted object on this page, not shown here)

[4] = FAST:fluorogen complex, listed as FAST:HBR-2,5DM
[5] = FAST:fluorogen complex, listed as FAST:HBR-3,5DM
[6] = FAST:fluorogen complex, listed as FAST:HBR-3OE
[7] = FAST:fluorogen complex, listed as FAST:HBR-3OM

Row | SMILES | red-shifted absorption relative to FAST:HMBR (FAST [1]; FAST:fluorogen complex) | red-shifted emission relative to FAST:HMBR (FAST [1]; FAST:fluorogen complex) | Brightness = ε × φ (FAST [1]; FAST:fluorogen complex) | ε, molar absorption coefficient at λ abs (FAST [1]; FAST:fluorogen complex) [mM^–1 cm^–1] | φ, fluorescence quantum yield (FAST [1]; FAST:fluorogen complex) [%] | F bound/F unbound, fluorescence activation upon FAST binding (FAST [1]) | Δλ abs = λ abs,bound – λ abs,unbound, absorption red-shift upon FAST binding (FAST [1]) [nm] | pKa [2] | λabs,anionic, wavelength of maximal absorption of the anionic state [2] [nm] | λabs,neutral, wavelength of maximal absorption of the protonated state [2] [nm] | Kd (FAST [3]) [nM] | toxicity for HeLa cells (cell viability) (HeLa cells) | also measured
1 | Cc1cc(/C=C2\SC(=S)NC2=O)c(C)cc1O [HBR-2,5DM, (Z)-5-(4-Hydroxy-2,5-dimethylbenzylidene)-2-thioxo-1,3-thiazolidin-4-one] | 15–20 nm | 10–20 nm | 14 500 | 50 | 29 | 430 | 88 | 8.7 | 472 | 406 | 8 | – | λ abs, wavelength of maximal absorption (FAST [1]; [4]): 494 nm; λ em, wavelength of maximal emission (FAST [1]; [4]): 552 nm
2 | Cc1cc(/C=C2\SC(=S)NC2=O)cc(C)c1O [HBR-3,5DM, (Z)-5-(4-Hydroxy-3,5-dimethylbenzylidene)-2-thioxothiazolidin-4-one] | 15–20 nm | 10–20 nm | 23 500 | 48 | 49 | 660 | 98 | 8.7 | 473 | 401 | 80 | non-toxic | λ abs, wavelength of maximal absorption (FAST [1]; [5]): 499 nm; λ em, wavelength of maximal emission (FAST [1]; [5]): 562 nm; overall brightness relative to the original FAST:HMBR complex (FAST [1]; higher than FAST:HMBR): 2.5 fold
3 | COc1cc(/C=C2\SC(=S)NC2=O)cc(OC)c1O [HBR-3,5DOM, (Z)-5-(4-Hydroxy-3,5-dimethoxybenzylidene)-2-thioxothiazolidin-4-one] | 40 nm | 60 nm | 12 000 | 39 | 31 | 220 | 112 | 8.3 | 484 | 407 | – | non-toxic | Stokes shift (FAST [1]; FAST:fluorogen complex): 82 nm; λ em, wavelength of maximal emission (FAST [1]; FAST:fluorogen complex): 600 nm
4 | CCc1cc(/C=C2\SC(=S)NC2=O)ccc1O [HBR-3E, (Z)-5-(3-Ethyl-4-hydroxybenzylidene)-2-thioxothiazolidin-4-one] | – | – | 6500 | 50 | 13 | 300 | 81 | – | – | – | 80 | – | λ abs, wavelength of maximal absorption (FAST [1]; FAST:fluorogen complex): 481 nm; λ em, wavelength of maximal emission (FAST [1]; FAST:fluorogen complex): 543 nm
5 | CCOc1cc(/C=C2\SC(=S)NC2=O)ccc1O [HBR-3OE, (Z)-5-(3-Ethoxy-4-hydroxybenzylidene)-2-thioxothiazolidin-4-one] | 15–20 nm | 10–20 nm | 7000 | 41 | 17 | 230 | 94 | – | – | – | 270 | – | λ abs, wavelength of maximal absorption (FAST [1]; [6]): 497 nm; λ em, wavelength of maximal emission (FAST [1]; [6]): 562 nm
6 | COc1cc(/C=C2\SC(=S)NC2=O)ccc1O [HBR-3OM, (Z)-5-(4-Hydroxy-3-methoxybenzylidene)-2-thioxo-1,3-thiazolidin-4-one] | 15–20 nm | 10–20 nm | 14 400 | 40 | 36 | 350 | 91 | 8.3 | 468 | 403 | 310 | non-toxic | λ abs, wavelength of maximal absorption (FAST [1]; [7]): 494 nm; λ em, wavelength of maximal emission (FAST [1]; [7]): 561 nm
7 | Cc1cc(C=C2SC(=S)NC2=O)ccc1O [HMBR, 4-hydroxy-3-methylbenzylidene rhodanine, reference compound] | – | – | 10 300 | 45 | – | 300 | – | 8.7 | 461 | 401 | – | – | –
